# Active and inactive are the calls of the source. No cut-off for these calls is given here.
# Columns and labels:
# [1] = target: T1, Potassium voltage-gated channel subfamily KQT member 3 (Homo sapiens) (UniProt O43525); assay: Inhibition of KCNQ3 (unknown origin) at 1 uM
# T1 sequence (whole entry): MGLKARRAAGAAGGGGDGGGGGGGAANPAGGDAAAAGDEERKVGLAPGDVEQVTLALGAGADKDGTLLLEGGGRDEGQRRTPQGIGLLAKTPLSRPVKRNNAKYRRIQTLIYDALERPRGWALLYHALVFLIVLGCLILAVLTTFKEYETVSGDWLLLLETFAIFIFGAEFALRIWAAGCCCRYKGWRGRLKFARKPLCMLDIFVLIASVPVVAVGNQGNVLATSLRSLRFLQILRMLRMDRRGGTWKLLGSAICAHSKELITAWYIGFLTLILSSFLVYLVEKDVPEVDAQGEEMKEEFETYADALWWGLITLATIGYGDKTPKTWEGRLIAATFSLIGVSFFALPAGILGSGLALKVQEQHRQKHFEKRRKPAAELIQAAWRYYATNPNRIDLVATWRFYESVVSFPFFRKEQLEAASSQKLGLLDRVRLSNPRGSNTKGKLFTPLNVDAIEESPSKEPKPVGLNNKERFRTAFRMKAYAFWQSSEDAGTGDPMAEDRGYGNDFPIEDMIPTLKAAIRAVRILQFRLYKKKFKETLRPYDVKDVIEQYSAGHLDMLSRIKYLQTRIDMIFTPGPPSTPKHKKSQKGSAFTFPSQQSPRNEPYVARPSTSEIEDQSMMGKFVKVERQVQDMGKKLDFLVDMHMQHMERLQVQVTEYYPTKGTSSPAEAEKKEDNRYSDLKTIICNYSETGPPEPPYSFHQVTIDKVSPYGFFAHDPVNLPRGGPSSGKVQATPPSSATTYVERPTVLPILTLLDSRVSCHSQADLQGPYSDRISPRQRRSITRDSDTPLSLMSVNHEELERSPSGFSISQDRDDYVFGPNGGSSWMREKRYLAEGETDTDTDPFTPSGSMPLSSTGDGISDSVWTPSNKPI
# [2] = target: T2, Voltage-dependent N-type calcium channel subunit alpha-1B (Homo sapiens, UniProt Q00975); assay: Inhibition of human Cav2.2 channel transfected in HEK293T cells assessed as inhibition of Cav2.2-mediated Ba2+ current at 1 uM measured for 3 to 5 days by whole-cell patch clamp assay; assay type: cell-based; details: time 3-5 day
# [3] = target: T3, Neuronal acetylcholine receptor; alpha9/alpha10 (Homo sapiens, UniProt Q9GZZ6+Q9UGM1); assay: Antagonist activity at human wild type alpha9alpha10 nAChR expressed in acetylcholine-induced Xenopus laevis oocytes assessed as inhibition of acetylcholine-induced current at 1:1 ratio of protein by two electrode voltage-clamp assay; assay type: cell-based, Oocyte
# [4] = Toxicity in rat assessed as motor impairment at 250 microg/kg,IM administrated for 14 consecutive days by rotarod test; details: in vivo, 0.25 mg/kg, dose 250 µg/kg
# [5] = target: T4, Neuronal acetylcholine receptor subunit alpha-7 (Homo sapiens, UniProt P36544); assay: Antagonist activity at human alpha7 nAChR expressed in acetylcholine-induced Xenopus laevis oocytes assessed as inhibition of acetylcholine-induced current at 30 nM by two electrode voltage-clamp assay; assay type: cell-based; details: Oocyte, filed as antagonist
# [6] = target: Nicotinic acetylcholine receptor alpha9/alpha10 (Rattus norvegicus, UniProt P43144+Q9JLB5); assay: Antagonist activity at rat wild type alpha9alpha10 nAChR expressed in acetylcholine-induced Xenopus laevis oocytes assessed as inhibition of acetylcholine-induced current at 1:1 ratio of protein by two electrode voltage-clamp assay; assay type: cell-based, Oocyte
# [7] = target: Neuronal acetylcholine receptor subunit alpha-7 (Rattus norvegicus) (UniProt Q05941); assay: Antagonist activity at rat alpha7 nAChR expressed in acetylcholine-induced Xenopus laevis oocytes assessed as inhibition of acetylcholine-induced current at 30 nM by two electrode voltage-clamp assay relative to control; assay type: cell-based; details: Oocyte
# [8] = target: T2, Voltage-dependent N-type calcium channel subunit alpha-1B; assay: Inhibition of human Cav2.2 channel transfected in HEK293T cells co-expressed with human GABAB receptor assessed as inhibition of Cav2.2-mediated Ba2+ current at 100 nM in presence of CGP 55845 measured for 3 to 5 days by whole-cell patch clamp assay; assay type: cell-based; details: time 3-5 day
# [9] = target: T4, Neuronal acetylcholine receptor subunit alpha-7; assay: Antagonist activity at human alpha7 nAChR expressed in acetylcholine-induced Xenopus laevis oocytes assessed as inhibition of acetylcholine-induced current by two electrode voltage-clamp assay; assay type: cell-based, Oocyte
# Rattus norvegicus [10] = assay: Analgesic activity in Chronic constriction injury rat model assessed as decrease in hyperalgesia at 250 microg/kg,IM administration and measured for 0.5 to 48 hrs; assay type: functional, organism-based; details: dose 250.0 µg/kg, time 0.5-48 hrs
# Rattus norvegicus [11] = assay: Analgesic activity in Chronic constriction injury rat model assessed as decrease in hyperalgesia at 250 microg/kg,IM administrated every 2 hrs for 14 days; assay type: functional, organism-based; details: dose 250.0 µg/kg, time 14.0 day
# [12] = target: T2, Voltage-dependent N-type calcium channel subunit alpha-1B; assay: Inhibition of human Cav2.2 channel transfected in HEK293T cells assessed as inhibition of Cav2.2-mediated Ba2+ current at 1 uM measured for 3 to 5 days by whole-cell patch clamp assay relative to control; assay type: cell-based; details: time 3-5 day
# [13] = target: Sodium channel protein type 9 subunit alpha (Homo sapiens) (UniProt Q15858); assay: Inhibition of Nav1.7 (unknown origin) at 1 uM
# Rattus norvegicus [14] = assay: Analgesic activity in Chronic constriction injury rat model assessed as decrease in hyperalgesia at 0.25 to 25 microg/kg,IM administrated every 2 hrs for 14 days; assay type: functional, organism-based; details: dose 0.25-25 µg/kg, time 14.0 day
# [15] = Antagonist activity at human alpha9alpha10G152N mutant nAChR expressed in acetylcholine-induced Xenopus laevis oocytes assessed as inhibition of acetylcholine-induced current at 1:1 ratio of protein by two electrode voltage-clamp assay; assay type: cell-based; details: Oocyte
# [16] = Toxicity in rat assessed as change in behavior at 250 microg/kg,IM administrated for 14 consecutive days by conditioned place preference assay; details: in vivo, 0.25 mg/kg, dose 250 µg/kg
# [17] = target: T5, Neuronal acetylcholine receptor; alpha9/alpha10 (Homo sapiens) (UniProt Q9UGM1+Q9GZZ6); assay: Antagonist activity at human alpha9alpha10 nAChR expressed in acetylcholine-induced Xenopus laevis oocytes assessed as inhibition of acetylcholine-induced current at 30 nM at -80 mV holding potential by two electrode voltage-clamp assay; assay type: cell-based; details: Oocyte, filed as antagonist
# [18] = Antagonist activity at human alpha9N152G mutant alpha10 nAChR expressed in acetylcholine-induced Xenopus laevis oocytes assessed as inhibition of acetylcholine-induced current at 1:3 ratio of protein by two electrode voltage-clamp assay; assay type: cell-based; details: Oocyte
# [19] = target: T5, Neuronal acetylcholine receptor; alpha9/alpha10 (Homo sapiens); assay: Antagonist activity at human alpha9alpha10 nAChR expressed in acetylcholine-induced Xenopus laevis oocytes assessed as inhibition of acetylcholine-induced current at 30 nM at -120 mV holding potential by two electrode voltage-clamp assay; assay type: cell-based; details: Oocyte, filed as antagonist
# [20] = target: T3, Neuronal acetylcholine receptor; alpha9/alpha10; assay: Antagonist activity at human wild type alpha9alpha10 nAChR expressed in acetylcholine-induced Xenopus laevis oocytes assessed as inhibition of acetylcholine-induced current at 1:3 ratio of protein by two electrode voltage-clamp assay; assay type: cell-based, Oocyte
# [21] = target: T2, Voltage-dependent N-type calcium channel subunit alpha-1B; assay: Inhibition of human Cav2.2 channel transfected in HEK293T cells co-expressed with human GABAB receptor assessed as inhibition of Cav2.2-mediated Ba2+ current at 100 nM measured for 3 to 5 days by whole-cell patch clamp assay; assay type: cell-based; details: time 3-5 day
# T2 sequence (Q00975 whole entry, looked up): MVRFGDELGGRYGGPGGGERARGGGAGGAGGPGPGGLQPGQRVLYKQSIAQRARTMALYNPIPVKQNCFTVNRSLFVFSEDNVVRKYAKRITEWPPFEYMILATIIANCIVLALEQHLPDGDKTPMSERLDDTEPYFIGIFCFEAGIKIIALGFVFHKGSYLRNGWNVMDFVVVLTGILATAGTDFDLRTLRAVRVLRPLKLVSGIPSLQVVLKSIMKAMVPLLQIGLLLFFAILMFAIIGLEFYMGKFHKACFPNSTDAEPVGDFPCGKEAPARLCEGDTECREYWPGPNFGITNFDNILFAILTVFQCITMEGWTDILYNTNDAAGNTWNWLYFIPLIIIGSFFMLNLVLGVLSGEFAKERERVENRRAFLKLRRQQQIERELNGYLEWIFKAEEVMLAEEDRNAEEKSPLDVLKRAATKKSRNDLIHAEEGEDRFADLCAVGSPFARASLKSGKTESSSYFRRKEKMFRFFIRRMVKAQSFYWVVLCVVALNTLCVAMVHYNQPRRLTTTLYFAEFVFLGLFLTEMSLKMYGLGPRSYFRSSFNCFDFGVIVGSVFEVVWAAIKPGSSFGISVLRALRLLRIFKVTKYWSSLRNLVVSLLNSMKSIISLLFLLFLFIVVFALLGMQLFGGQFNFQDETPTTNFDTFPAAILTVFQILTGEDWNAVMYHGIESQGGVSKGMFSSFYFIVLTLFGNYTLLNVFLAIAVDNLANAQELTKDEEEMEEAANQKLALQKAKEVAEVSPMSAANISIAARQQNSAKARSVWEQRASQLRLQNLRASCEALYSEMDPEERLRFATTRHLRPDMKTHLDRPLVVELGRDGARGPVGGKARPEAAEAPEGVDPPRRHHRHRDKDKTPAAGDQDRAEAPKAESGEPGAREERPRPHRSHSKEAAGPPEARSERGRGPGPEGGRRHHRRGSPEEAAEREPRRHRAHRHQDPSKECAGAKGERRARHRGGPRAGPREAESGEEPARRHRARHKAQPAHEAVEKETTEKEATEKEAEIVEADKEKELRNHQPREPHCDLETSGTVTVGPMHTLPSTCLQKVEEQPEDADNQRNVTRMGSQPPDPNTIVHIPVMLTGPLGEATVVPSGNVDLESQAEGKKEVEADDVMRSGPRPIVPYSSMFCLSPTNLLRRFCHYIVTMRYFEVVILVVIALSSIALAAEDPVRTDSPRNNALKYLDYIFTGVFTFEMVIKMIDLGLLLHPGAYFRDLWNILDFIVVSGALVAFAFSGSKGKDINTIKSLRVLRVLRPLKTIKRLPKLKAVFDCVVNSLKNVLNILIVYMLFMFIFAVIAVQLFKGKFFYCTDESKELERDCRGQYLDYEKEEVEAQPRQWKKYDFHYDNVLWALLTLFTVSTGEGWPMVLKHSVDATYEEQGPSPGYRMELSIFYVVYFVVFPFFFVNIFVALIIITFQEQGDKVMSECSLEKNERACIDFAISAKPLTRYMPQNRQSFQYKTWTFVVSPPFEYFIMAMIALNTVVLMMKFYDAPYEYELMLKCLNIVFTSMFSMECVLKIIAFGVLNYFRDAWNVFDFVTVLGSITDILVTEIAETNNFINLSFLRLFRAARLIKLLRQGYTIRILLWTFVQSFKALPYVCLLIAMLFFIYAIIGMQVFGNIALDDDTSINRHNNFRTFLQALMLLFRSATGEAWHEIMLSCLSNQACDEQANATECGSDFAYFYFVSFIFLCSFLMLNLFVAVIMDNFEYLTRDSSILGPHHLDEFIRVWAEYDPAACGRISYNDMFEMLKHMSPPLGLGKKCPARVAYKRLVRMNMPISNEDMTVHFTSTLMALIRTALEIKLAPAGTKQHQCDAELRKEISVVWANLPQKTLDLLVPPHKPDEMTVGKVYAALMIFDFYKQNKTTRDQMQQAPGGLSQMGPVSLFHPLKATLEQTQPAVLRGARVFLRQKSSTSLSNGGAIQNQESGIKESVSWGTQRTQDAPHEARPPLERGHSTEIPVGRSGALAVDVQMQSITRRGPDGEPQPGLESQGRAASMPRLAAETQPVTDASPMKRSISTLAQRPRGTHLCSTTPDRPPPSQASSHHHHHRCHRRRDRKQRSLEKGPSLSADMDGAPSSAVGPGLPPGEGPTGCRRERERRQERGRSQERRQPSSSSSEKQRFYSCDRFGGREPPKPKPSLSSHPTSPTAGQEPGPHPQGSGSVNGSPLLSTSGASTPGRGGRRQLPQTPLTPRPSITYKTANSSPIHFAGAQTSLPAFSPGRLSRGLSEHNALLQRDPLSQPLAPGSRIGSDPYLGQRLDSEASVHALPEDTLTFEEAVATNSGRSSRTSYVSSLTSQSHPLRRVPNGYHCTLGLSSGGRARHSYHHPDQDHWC
# T3 sequence (Q9UGM1 whole entry): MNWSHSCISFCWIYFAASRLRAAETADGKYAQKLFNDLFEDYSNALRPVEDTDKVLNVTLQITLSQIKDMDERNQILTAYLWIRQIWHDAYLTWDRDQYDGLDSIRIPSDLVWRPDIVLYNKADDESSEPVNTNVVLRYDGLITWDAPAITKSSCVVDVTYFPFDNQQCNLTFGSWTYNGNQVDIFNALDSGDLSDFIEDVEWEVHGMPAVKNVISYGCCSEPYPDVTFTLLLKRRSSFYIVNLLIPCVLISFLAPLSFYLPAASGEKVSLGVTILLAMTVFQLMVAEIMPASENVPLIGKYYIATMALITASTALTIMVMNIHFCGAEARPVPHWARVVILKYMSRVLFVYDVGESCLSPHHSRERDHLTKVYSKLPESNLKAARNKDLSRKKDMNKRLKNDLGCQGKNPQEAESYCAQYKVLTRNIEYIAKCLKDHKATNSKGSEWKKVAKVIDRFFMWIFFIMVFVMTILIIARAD
# T3 sequence (Q9GZZ6 whole entry): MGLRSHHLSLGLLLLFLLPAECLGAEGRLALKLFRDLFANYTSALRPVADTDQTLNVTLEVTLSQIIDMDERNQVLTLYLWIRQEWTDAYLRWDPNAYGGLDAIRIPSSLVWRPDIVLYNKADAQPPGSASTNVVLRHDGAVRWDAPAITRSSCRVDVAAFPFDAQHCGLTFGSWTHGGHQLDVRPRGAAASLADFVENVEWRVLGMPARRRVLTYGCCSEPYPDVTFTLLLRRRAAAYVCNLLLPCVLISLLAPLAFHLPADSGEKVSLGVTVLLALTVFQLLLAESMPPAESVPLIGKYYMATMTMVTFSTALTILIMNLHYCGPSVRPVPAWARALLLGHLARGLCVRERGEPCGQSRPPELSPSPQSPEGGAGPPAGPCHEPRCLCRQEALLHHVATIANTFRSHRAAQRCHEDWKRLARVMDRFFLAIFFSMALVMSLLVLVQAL
# T4 sequence (P36544 whole entry): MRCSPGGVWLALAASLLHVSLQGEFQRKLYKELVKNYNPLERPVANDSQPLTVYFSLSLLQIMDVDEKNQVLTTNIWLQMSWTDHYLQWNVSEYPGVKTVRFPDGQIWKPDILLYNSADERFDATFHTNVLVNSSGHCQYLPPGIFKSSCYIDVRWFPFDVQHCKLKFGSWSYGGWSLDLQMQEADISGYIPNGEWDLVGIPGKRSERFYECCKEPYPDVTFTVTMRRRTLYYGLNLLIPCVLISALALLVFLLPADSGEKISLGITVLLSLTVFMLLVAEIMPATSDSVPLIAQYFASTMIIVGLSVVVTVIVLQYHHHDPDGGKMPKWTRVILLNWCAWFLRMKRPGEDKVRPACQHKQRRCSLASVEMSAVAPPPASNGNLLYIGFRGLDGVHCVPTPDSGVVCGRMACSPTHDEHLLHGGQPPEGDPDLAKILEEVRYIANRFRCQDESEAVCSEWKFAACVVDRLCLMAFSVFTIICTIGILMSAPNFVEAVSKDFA
# Nicotinic acetylcholine receptor alpha9/alpha10, sequence (P43144 whole entry): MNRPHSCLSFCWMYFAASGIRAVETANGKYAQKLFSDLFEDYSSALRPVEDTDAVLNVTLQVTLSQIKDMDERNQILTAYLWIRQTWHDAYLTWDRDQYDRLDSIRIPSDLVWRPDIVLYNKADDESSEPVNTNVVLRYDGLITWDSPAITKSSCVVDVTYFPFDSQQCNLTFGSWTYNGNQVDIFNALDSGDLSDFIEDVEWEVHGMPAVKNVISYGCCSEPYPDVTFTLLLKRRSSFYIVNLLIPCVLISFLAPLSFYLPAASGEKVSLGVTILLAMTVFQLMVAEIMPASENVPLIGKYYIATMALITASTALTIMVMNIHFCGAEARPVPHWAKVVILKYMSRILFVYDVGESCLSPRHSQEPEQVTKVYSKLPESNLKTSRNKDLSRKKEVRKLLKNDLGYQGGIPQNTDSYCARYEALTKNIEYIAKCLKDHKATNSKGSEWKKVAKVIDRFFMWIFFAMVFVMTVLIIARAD
# Nicotinic acetylcholine receptor alpha9/alpha10, sequence (Q9JLB5 whole entry): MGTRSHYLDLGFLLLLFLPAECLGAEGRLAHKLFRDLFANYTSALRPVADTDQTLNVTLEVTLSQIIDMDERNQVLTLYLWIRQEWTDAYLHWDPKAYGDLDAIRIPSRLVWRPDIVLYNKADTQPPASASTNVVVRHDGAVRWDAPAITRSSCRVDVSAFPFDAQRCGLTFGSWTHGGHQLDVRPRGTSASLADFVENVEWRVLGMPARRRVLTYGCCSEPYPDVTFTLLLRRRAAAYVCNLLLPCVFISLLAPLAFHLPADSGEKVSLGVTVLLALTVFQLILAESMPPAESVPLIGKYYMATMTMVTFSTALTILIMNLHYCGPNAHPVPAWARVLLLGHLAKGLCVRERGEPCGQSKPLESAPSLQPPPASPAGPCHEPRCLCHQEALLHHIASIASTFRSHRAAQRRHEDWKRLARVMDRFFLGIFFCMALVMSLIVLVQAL
structure (smiles),measurement,setting,value
CC[C@H](C)[C@H](NC(=O)[C@H](CCCNC(=N)N)NC(=O)[C@H](CCCNC(=N)N)NC(=O)[C@H](Cc1ccc(O)cc1)NC(=O)[C@H](CCCNC(=N)N)NC(=O)[C@H](CCCNC(=N)N)NC(=O)[C@H](CCCNC(=N)N)NC(=O)[C@H](CCCNC(=N)N)NC(=O)[C@H](CC(=O)O)NC(=O)[C@H](Cc1ccc(O)cc1)NC(=O)[C@@H]1CCCN1C(=O)[C@H](CO)NC(=O)[C@H](CCCNC(=N)N)NC(=O)[C@H](Cc1ccc(O)cc1)NC(=O)[C@H](CCCNC(=N)N)NC(=O)CN)C(=O)N[C@H](C(=O)N[C@@H](CC(=O)O)C(N)=O)[C@@H](C)O,inhibition,[1],inactive
same,inhibition,[2],inactive
same,IC50,[3],25.7 nM
same,Activity,[4],Non-Toxic
same,inhibition,[5],40%
same,IC50,[6],18.3 nM
same,inhibition,[7],10%
same,inhibition,[8],inactive
same,IC50,[9],43.8 nM
same,Activity,Rattus norvegicus [10],Active
same,Activity,Rattus norvegicus [11],Active
same,inhibition,[12],53.6%
same,inhibition,[13],inactive
same,Activity,Rattus norvegicus [14],Active
same,IC50,[15],25.2 nM
same,Activity,[16],Non-Toxic
same,inhibition,[17],Active
same,IC50,[18],8.8 nM
same,inhibition,[19],Active
same,IC50,[20],5 nM
same,inhibition,[21],Active

# From ChEMBL document CHEMBL5537181 (J Med Chem, 2024)
